Measurements reported in patent US20230271959A1, “HETEROCYCLIC COMPOUND AS BCL-2 INHIBITOR” (Beijing Innocare Pharma Tech Co., Ltd., priority 2020, published 2023).

Columns and labels:
[1] = tested on: RS4;11 cells (acute lymphoblastic leukemia cells); experiment: RS4;11 cell proliferation, CellTilter-Glo luminescence cell viability assay; type: cell-based; settings: Homo sapiens, RS4-11; CTG readout after 48 hours
How it was run: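 RS4;11 cells plated overnight were exposed for 48 h at 37 °C, 5% CO2 to an 8-point, 4-fold compound dilution series; the vehicle control contained 0.2% DMSO. Viability was read by CellTiter-Glo luminescence. Percent inhibition was referenced to no-cell and DMSO controls, and IC50 came from a four-parameter sigmoidal fit.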

[2] = target: T1, human recombinant Bcl-2 protein (Homo sapiens, UniProt P10415); experiment: Fluorescence polarization test for inhibition of BCL-2 binding to FITC-BIM; settings: 5 nM BCL-2, 5 nM FITC-BIM, read-out: FP BCL-2 IC50
T1 construct: purchased Beijing Yigiao Shenzhou Biotechnology Co., Ltd. 10195-HOSE
T1 sequence (P10415 whole entry): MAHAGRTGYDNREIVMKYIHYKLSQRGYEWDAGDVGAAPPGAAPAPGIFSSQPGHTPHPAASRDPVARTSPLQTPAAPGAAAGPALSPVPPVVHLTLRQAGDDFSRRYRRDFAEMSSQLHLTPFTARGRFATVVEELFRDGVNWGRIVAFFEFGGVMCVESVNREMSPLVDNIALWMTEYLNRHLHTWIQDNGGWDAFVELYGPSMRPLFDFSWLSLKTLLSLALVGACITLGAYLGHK
How it was run: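 FP competition: compound preincubated 15 min with recombinant human Bcl-2 (diluted to 5 nM), then FITC-BIM (diluted to 5 nM) added for 30 min at room temperature in PBS pH 7.4 with 1 mM DTT. Polarization read at 480/535 nm; IC50 from 8-point 4-fold series fitted by four-parameter equation.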

[3] = target: T2, human recombinant Bcl-XL protein (Homo sapiens, UniProt Q07817); experiment: Fluorescence polarization test for inhibition of BCL-XL binding to FITC-BIM; settings: 10 nM BCL-XL, 10 nM FITC-BIM, read-out: FP BCL-XL IC50
T2 construct: purchased Beijing Yiqiao Shenzhou Biotechnology Co., Ltd. 10455-H0SE
T2 sequence (Q07817 whole entry): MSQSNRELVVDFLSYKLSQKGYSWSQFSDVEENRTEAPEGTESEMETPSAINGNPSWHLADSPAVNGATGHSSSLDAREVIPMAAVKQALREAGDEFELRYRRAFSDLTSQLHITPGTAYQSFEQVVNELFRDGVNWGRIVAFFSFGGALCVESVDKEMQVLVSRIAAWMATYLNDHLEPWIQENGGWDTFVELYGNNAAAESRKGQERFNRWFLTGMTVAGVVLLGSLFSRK
How it was run: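 Human recombinant Bcl-XL (10 nM diluted stock) preincubated with compound 15 min at RT in PBS pH 7.4, 1 mM DTT, then FITC-BIM peptide (10 nM diluted stock) added for 30 min in dark. FP read at ex 480/em 535 nm; no-protein wells = 100% inhibition; IC50 from 8-point 4-fold dilution curve fit.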

Row | SMILES | IC50 [1] [nM] | IC50 [2] [nM] | IC50 [3] [nM]
1 | C[C@@H]1CCC(CN2CCN(c3ccc(C(=O)NS(=O)(=O)c4cc(F)c(NCC5CCOCC5)c([N+](=O)[O-])c4)c(Oc4cnc5[nH]ccc5c4)c3)[C@H](C)C2)=C(c2ccc(Cl)cc2)C1 [Example 25, 2-((1H-pyrrolo[2,3-b]pyridin-5-yl)oxy)-4-((R)-(((R)-4′-chloro-5-methyl-3,4,5,6-tetrahydro-[1,1′-biphenyl]-2-yl)methyl)-2-methylpiperazin-1-yl)-N-((3-fluoro-5-nitro-4-(((tetrahydro-2H-pyran-4-yl)methyl)amino)phenyl)sulfonyl)benzamide] | 32 | 2.71 | > 1000
2 | C[C@@H]1CN(c2ccc(C(=O)NS(=O)(=O)c3ccc(NCC4CCOCC4)c([N+](=O)[O-])c3)c(Oc3cnc4[nH]ccc4c3)c2)CCN1CC1=C(c2ccc(Cl)cc2)CCC(C)(C)C1 [Example 27, (R)-2-((1H-pyrrolo[2,3-b]pyridin-5-yl)oxy)-4-(4-((4′-chloro-4,4-dimethyl-3,4,5,6-tetrahydro-[1,1′-biphenyl]-2-yl)methyl)-3-methylpiperazin-1-yl)-N-((3-nitro-4--(((tetrahydro-2H-pyran-4-yl)methyl)amino)phenyl)sulfonyl)benzamide] | 16 | 5.12 | > 1000
3 | C[C@@H]1CN(c2ccc(C(=O)NS(=O)(=O)c3cc(F)c(NCC4CCOCC4)c([N+](=O)[O-])c3)c(Oc3cnc4[nH]ccc4c3)c2)CCN1CC1=C(c2ccc(Cl)cc2)CC(C)(C)C2(CC2)C1 [Example 33] | 16 | 3.16 | > 1000
4 | C[C@@H]1CN(c2ccc(C(=O)NS(=O)(=O)c3cc(F)c(NC[C@H]4COCCO4)c([N+](=O)[O-])c3)c(Oc3cnc4[nH]ccc4c3)c2)CCN1CC1=C(c2ccc(Cl)cc2)CCC2(CC2)C1 [Example 35, N-((4-((((S)-1,4-dioxan-2-yl)methyl)amino)-3-fluoro-5-nitrophenyl)sulfonyl)-2-((1H-pyrrolo[2,3-b]pyridin-5-yl)oxy)-4-((R)-4-((6-(4-chlorophenyl)spiro[2.5]oct-5-en-5-yl)methyl)-3-methylpiperazin-1-yl)benzamide] | 17 | 2.96 | > 1000
5 | C[C@@H]1CN(c2ccc(C(=O)NS(=O)(=O)c3ccc(NC[C@H]4COCCO4)c([N+](=O)[O-])c3)c(Oc3cnc4[nH]ccc4c3)c2)CCN1CC1=C(c2ccc(Cl)cc2)CCC2(CC2)C1 [Example 36] | 21 | 4.78 | > 1000
6 | C[C@@H]1CN(c2ccc(C(=O)NS(=O)(=O)c3cc(F)c(NCC4CCOCC4)c([N+](=O)[O-])c3)c(Oc3cnc4[nH]ccc4c3)c2)CCN1CC1=C(c2ccc(Cl)cc2)CCC2(CC2)C1 [Example 37] | 22 | 3.15 | > 1000
7 | C[C@@H]1CN(c2ccc(C(=O)NS(=O)(=O)c3ccc(NCC4CCOCC4)c([N+](=O)[O-])c3)c(Oc3cnc4[nH]ccc4c3)c2)CCN1CC1=C(c2ccc(Cl)cc2)CCC2(CC2)C1 [Example 38] | 32 | 5.24 | > 1000
8 | C[C@@H]1CN(c2ccc(C(=O)NS(=O)(=O)c3ccc(NCC4CCOCC4)c([N+](=O)[O-])c3)c(Oc3cnc4[nH]ccc4c3)c2)CCN1CC1=C(c2ccc(Cl)cc2)CC(C)(C)C(C)(C)C1 [Example 39, (R)-2-((1H-pyrrolo[2,3-b]pyridin-5-yl)oxy)-4-(4-((4′-chloro-4,4,5,5-tetramethyl-3,4,5,6-tetrahydro-[1,1′-biphenyl]-2-yl)methyl)-3-methylpiperazin-1-yl)-N-((3-nitro-4--(((tetrahydro-2H-pyran-4-yl)methyl)amino)phenyl)sulfonyl)benzamide] | 14.5 | 2.68 | > 1000
9 | C[C@@H]1CN(c2ccc(C(=O)NS(=O)(=O)c3cc(F)c(NCC4CCOCC4)c([N+](=O)[O-])c3)c(Oc3cnc4[nH]ccc4c3)c2)CCN1CC1=C(c2ccc(Cl)cc2)CC(C)(C)C(C)(C)C1 [Example 40] | 15 | 1.77 | > 1000

The next molecules have a lower IC50 [1] than those just listed; values first:

Row | IC50 [1] [nM] | IC50 [2] [nM] | IC50 [3] [nM] | SMILES
10 | 14 | 1.63 | > 1000 | C[C@@H]1CCC(CN2CCN(c3ccc(C(=O)NS(=O)(=O)c4cc(F)c(NC[C@H]5COCCO5)c([N+](=O)[O-])c4)c(Oc4cnc5[nH]ccc5c4)c3)[C@H](C)C2)=C(c2ccc(Cl)cc2)C1 [Example 26]
11 | 8.1 | 3.57 | > 1000 | C[C@@H]1CN(c2ccc(C(=O)NS(=O)(=O)c3ccc(NCC4CCOCC4)c([N+](=O)[O-])c3)c(Oc3cnc4[nH]ccc4c3)c2)CCN1CC1=C(c2ccc(Cl)cc2)CC(C)(C)C2(CC2)C1 [Example 31, (R)-2-((1H-Pyrrolo[2,3-b]pyridin-5-yl)oxy)-4-(4-((6-(4-chlorophenyl)-8,8-dimethylspiro[2.5]oct-5-en-5-yl)methyl)-3-methylpiperazin-1-yl)-N-((3-nitro-4-(((tetrahydro-2H-pyran-4-yl)methyl)amino)phenyl)sulfonyl)benzamide]
12 | 8 | 1.28 | > 1000 | C[C@@H]1CN(c2ccc(C(=O)NS(=O)(=O)c3cc(F)c(NC[C@H]4COCCO4)c([N+](=O)[O-])c3)c(Oc3cnc4[nH]ccc4c3)c2)CCN1CC1=C(c2ccc(Cl)cc2)CC(C)(C)C(C)(C)C1 [Example 41, N-((4-((((S)-1,4-dioxan-2-yl)methyl)amino)-3-fluoro-5-nitrophenyl)sulfonyl)-2-((1H-pyrrolo[2,3-b]pyridin-5-yl)oxy)-4-((R)-4-((4′-chloro-4,4,5,5-tetramethyl-3,4,5,6-tetrahydro-[1,1′-biphenyl]-2-yl)methyl)-3-methylpiperazin-1-yl)benzamide]
13 | 6.6 | 1.8 | > 1000 | C[C@@H]1CN(c2ccc(C(=O)NS(=O)(=O)c3cc(F)c(NC[C@H]4COCCO4)c([N+](=O)[O-])c3)c(Oc3cnc4[nH]ccc4c3)c2)CCN1CC1=C(c2ccc(Cl)cc2)CC(C)(C)C2(CC2)C1 [Example 32, N-((4-((((S)-1,4-dioxan-2-yl)methyl)amino)-3-fluoro-5-nitrophenyl)-sulfonyl)-2-((1H-pyrrolo [2,3-b]pyridin-5-yl)oxy)-4-((R)-4-((6-(4-chlorophenyl)-8,8-dimethylspiro[2.5]oct-5-en-5-yl)methyl)-3-methylpiperazin-1-yl) benzamide]
14 | 6.6 | 3.33 | > 1000 | C[C@@H]1CN(c2ccc(C(=O)NS(=O)(=O)c3ccc(NC[C@H]4COCCO4)c([N+](=O)[O-])c3)c(Oc3cnc4[nH]ccc4c3)c2)CCN1CC1=C(c2ccc(Cl)cc2)CC(C)(C)C2(CC2)C1 [Example 34, N-((4-((((S)-1,4-dioxan-2-yl)methyl)amino)-3-nitrophenyl)sulfonyl)-2-((1H-pyrrolo[2,3-b]pyridin-5-yl)oxy)-4-((R)-4-((6-(4-chlorophenyl)-8,8-dimethylspiro[2.5]oct-5-en-5-yl)methyl)-3-methylpiperazin-1-yl) benzamide]
15 | 6.55 | 1.37 | > 1000 | C[C@@H]1CN(c2ccc(C(=O)NS(=O)(=O)c3cc(F)c(NCC4CCOCC4)c([N+](=O)[O-])c3)c(Oc3cnc4[nH]ccc4c3)c2)CCN1CC1=C(c2ccc(Cl)cc2)CCC(C)(C)C1 [Example 28, (R)-2-((1H-pyrrolo[2,3-b]pyridin-5-yl)oxy)-4-(4-((4′-chloro-4,4-dimethyl-3,4,5,6-tetrahydro-[1,1′-biphenyl]-2-yl)methyl)-3-methylpiperazin-1-yl)-N-((3-fluoro-5-nitro-4--(((tetrahydro-2H-pyran-4-yl)methyl)amino)phenyl)sulfonyl)benzamide]
16 | 4.2 | 1.6 | > 1000 | C[C@@H]1CN(c2ccc(C(=O)NS(=O)(=O)c3ccc(NC[C@H]4COCCO4)c([N+](=O)[O-])c3)c(Oc3cnc4[nH]ccc4c3)c2)CCN1CC1=C(c2ccc(Cl)cc2)CCC(C)(C)C1 [Example 29, N-((4-((((S)-1,4-dioxan-2-yl)methyl)amino)-3-nitrophenyl)sulfonyl)-2-((1H-pyrrolo[2,3-b]pyridin-5-yl)oxy)-4-((R)-4-((4′-chloro-4,4-dimethyl-3,4,5,6-tetrahydro-[1,1′-biphenyl]-2-yl)methyl)-3-methylpiperazin-1-yl) benzamide]
17 | 2.3 | 0.84 | 831 | C[C@@H]1CN(c2ccc(C(=O)NS(=O)(=O)c3cc(F)c(NC[C@H]4COCCO4)c([N+](=O)[O-])c3)c(Oc3cnc4[nH]ccc4c3)c2)CCN1CC1=C(c2ccc(Cl)cc2)CCC(C)(C)C1 [Example 30, N-((4-((((S)-1,4-dioxan-2-yl)methyl)amino)-3-fluoro-5-nitrophenyl)sulfonyl)-2-((1H-pyrrolo[2,3-b]pyridin-5-yl)oxy)-4-((R)-4-((4′-chloro-4,4-dimethyl-3,4,5,6-tetrahydro-[1,1′-biphenyl]-2-yl)methyl)-3-methylpiperazin-1-yl)benzamide]
